IC50 data for 33 molecules are collected here from patent US20150038527A1, “FUROPYRIDINE DERIVATIVES” (Merck Patent GmbH, priority 2012, published 2015).

Where only a bound is given, the exact number is not on record here.

The term IC50 denotes the point on the concentration scale where inhibition reaches its midpoint. A high value points to a need for much substance.

In the experiment the target is T1, SYK (Homo sapiens, UniProt P43405).
T1 construct: 2.5 nM SYK, 400 nM Biotin-Aha-Aha-KEDPDYEWPSAKK and 10 μM ATP
Put plainly: SYK Flash Plate Assay (enzyme assay). The format is biochemical. The protocol: The kinase assay is performed either as 384-well Flashplate assay (for e.g. Topcount measurement) or as 384-well Image-Flashplate assay (for LEADseeker measurement).
2.5 nM SYK, 400 nM Biotin-Aha-Aha-KEDPDYEWPSAKK and 10 μM ATP (spiked with 0.3 μCi 33P-ATP/well) are incubated in a total volume of 50 μl (60 mM Hepes, 10 mM MgCl2, 1.2 mM Dithiothreitol, 0.02% Brij35, 0.1% BSA, pH 7.5) with or without test compound for 1 hours at 30° C. The reaction is stopped with 25 μl 200 mM EDTA. After 30 Min at 30° C. the liquid is removed and each well washed thrice with 100 μl 0.9% sodium chloride solution. Non-specific reaction is determined in presence of 0.1 μM Staurosporine. Radioactivity is measured with Topcount (when using Flashplates) or with LEADseeker (when using Image-Flashplates) respectively. Results (e.g. IC50-values) are calculated with program tools provided by the IT-department (e.g. Symyx Assay Explorer, Genedata Screener).
The molecule `CCn1cc(-c2ccnc3cc(-c4cc(C(N)=O)ccc4OC)oc23)cn1` [Compound A63, 3-[7-(1-ethyl-1H-pyrazol-4-yl)-furo[3,2-b]pyridin-2-yl]-4-methoxy-benzamide] registered an IC50 of 0.3 to 3 µM.

In the case of `COC[C@@H](N)CNC(=O)c1cccc(-c2ccnc3cc(-c4cc(OC)c(OC)c(OC)c4)oc23)c1` [Compound A26, N—((S)-2-amino-3-methoxy-propyl)-3-[2-(3,4,5-trimethoxy-phenyl)-furo[3,2-b]pyridin-7-yl]-benzamide], the IC50 is 3 to 50 µM.

Molecule `COc1cc(-c2cc3nccc(-c4nnc(CCCN)[nH]4)c3o2)cc(OC)c1OC` [Compound A108, 3-{5-[2-(3,4,5-trimethoxy-phenyl)-furo[3,2-b]pyridin-7-yl]-4H-[1,2,4]triazol-3-yl}-propylamine] registered a half-maximal inhibitory concentration (IC50) of 0.1 to 0.3 µM.

For `COc1cc(-c2cc3nccc(-c4cccc(C(=O)N[C@@H]5CCCC[C@@H]5NC(C)=O)c4)c3o2)cc(OC)c1OC` [Compound A34, N-((1R,2S)-2-acetylamino-cyclohexyl)-3-[2-(3,4,5-trimethoxy-phenyl)furo[3,2-b]pyridin-7-yl]-benzamide], the IC50 was 3 to 50 µM.

For `COCC(O)CNC(=O)c1cccc(-c2ccnc3cc(-c4cc(OC)c(OC)c(OC)c4)oc23)c1` (stereo not drawn) [Compound A16, N-(2-hydroxy-3-methoxy-propyl)-3-[2-(3,4,5-trimethoxy-phenyl)-furo[3,2-b]pyridin-7-yl]-benzamide], the 50% inhibitory concentration (IC50) was 3 to 50 µM.

`COc1cc(-c2cc3nccc(-c4cccc(C(=O)N[C@H]5CCCC[C@H]5O)c4)c3o2)cc(OC)c1OC` [Compound A11, N-((1S,2R)-2-hydroxy-cyclohexyl)-3-[2-(3,4,5-trimethoxy-phenyl)-furo[3,2-b]pyridin-7-yl]-benzamide] returned an IC50 of 0.3 to 3 µM.

`COc1cc(-c2cc3nccc(N4CCNCC4)c3o2)cc(OC)c1OC` [Compound A53, 7-piperazin-1-yl-2-(3,4,5-trimethoxy-phenyl)-furo[3,2-b]pyridine] displayed an IC50 of 3 to 50 µM.

In turn, `COc1ccc(-c2nnn[nH]2)cc1-c1cc2nccc(-c3c(OC)cccc3OC)c2o1` [Compound A84, 7-(2,6-dimethoxy-phenyl)-2-[2-methoxy-5-(1H-tetrazol-5-yl)-phenyl]-furo[3,2-b]pyridine] returned an IC50 of less than 0.1 µM.

Take `COC[C@@H](CNC(=O)c1cccc(-c2ccnc3cc(-c4cc(OC)c(OC)c(OC)c4)oc23)c1)NS(C)(=O)=O` [Compound A10, N—((R)-2-methanesulfonylamino-3-methoxy-propyl)-3-[2-(3,4,5-trimethoxyphenyl)-furo[3,2-b]pyridin-7-yl]-benzamide]: the 50% inhibitory concentration (IC50) was 0.3 to 3 µM.

Molecule `COc1cc(-c2cc3nccc(-c4cc(C(=O)N[C@@H]5CCCC[C@@H]5N)ccc4F)c3o2)cc(OC)c1OC` [Compound A48, N-((1R,2S)-2-mino-cyclohexyl)-4-fluoro-3-[2-(3,4,5-trimethoxy-phenyl)furo[3,2-b]pyridin-7-yl]-benzamide] returned an IC50 of 0.3 to 3 µM.

With `COc1cc(-c2cc3nccc(-c4cccc(C(=O)N[C@@H]5CCCC[C@@H]5NS(C)(=O)=O)c4)c3o2)cc(OC)c1OC` [Compound A33, N-((1R,2S)-2-methanesulfonylamino-cyclohexyl)-3-[2-(3,4,5-trimethoxyphenyl)-furo[3,2-b]pyridin-7-yl]-benzamide], the IC50 lay in the range of 3 to 50 µM.

Turning to `COc1ccc(-c2noc(=O)[nH]2)cc1-c1cc2nccc(-c3cc[nH]n3)c2o1` [Compound A105, 3-{4-methoxy-3-[7-(1H-pyrazol-3-yl)-furo[3,2-b]pyridin-2-yl]-phenyl}-4H-[1,2,4]oxadiazol-5-one], the IC50 is less than 0.1 µM.

For `COc1cc(-c2cc3nccc(-c4cccc(C(=O)NCC(N)C5CC5)c4)c3o2)cc(OC)c1OC` (stereo not drawn) [Compound A23, N-(2-amino-2-cyclopropyl-ethyl)-3-[2-(3,4,5-trimethoxy-phenyl)-furo[3,2-b]pyridin-7-yl]-benzamide], the IC50 fell in the range of 0.3 to 3 µM.

As for `COc1ccc(C(N)=O)cc1-c1cc2nccc(-c3cnc[nH]3)c2o1` [Compound A93, 3-[7-(3H-imidazol-4-yl)-furo[3,2-b]pyridin-2-yl]-4-methoxy-benzamide], the IC50 fell in the range of 0.1 to 0.3 µM.

`COc1cc(O)ccc1-c1cc2nccc(-c3cccc(C(=O)N[C@@H]4CCCC[C@@H]4N)c3)c2o1` [Compound A15, N-((1R,2S)-2-amino-cyclohexyl)-3-[2-(4-hydroxy-2-methoxy-phenyl)furo[3,2-b]pyridin-7-yl]-benzamide] returned an IC50 of 0.3 to 3 µM.

Consider `CCc1ccc(OC)cc1-c1cc2nccc(-c3ccc4[nH]cnc4c3)c2o1` [Compound A36, 7-(1H-benzoimidazol-5-yl)-2-(2-ethyl-5-methoxy-phenyl)-furo[3,2-b]pyridine], for which the IC50 was 3 to 50 µM.

Regarding `COc1cc(-c2cc3nccc(-c4ccc5c(c4)[nH]c(=O)n5CCN)c3o2)cc(OC)c1OC` [Compound A37, 1-(2-amino-ethyl)-5-[2-(3,4,5-trimethoxy-phenyl)-furo[3,2-b]pyridin-7-yl]-1,3-dihydro-benzoimidazol-2-one], the IC50 was in the range of 0.3 to 3 µM.

For `COc1cc(-c2cc3nccc(-c4cccc(C(=O)NC[C@@H](O)CO)c4)c3o2)cc(OC)c1OC` [Compound A17, N—((R)-2,3-dihydroxy-propyl)-3-[2-(3,4,5-trimethoxy-phenyl)-furo[3,2-b]pyridin-7-yl]-benzamide], the IC50 lay within 3 to 50 µM.

`CCc1ccc(OC)c(-c2cc3nccc(-c4cc(CC)ccc4OC)c3o2)c1` [Compound A30, 2,7-bis-(5-ethyl-2-methoxy-phenyl)-furo[3,2-b]pyridine] gave an IC50 of 3 to 50 µM.

The molecule `COc1cccc(OC)c1-c1ccnc2cc(-c3cc(C(N)=O)ccc3C(C)C)oc12` [Compound A74, 3-[7-(2,6-dimethoxy-phenyl)-furo[3,2-b]pyridin-2-yl]-4-isopropyl-benzamide] gave an IC50 of 3 to 50 µM.

As for `COc1ccc(C#N)cc1-c1cc2nccc(-c3cc[nH]n3)c2o1` [Compound A88, 4-methoxy-3-[7-(1H-pyrazol-3-yl)-furo[3,2-b]pyridin-2-yl]-benzonitrile], the IC50 was less than 0.1 µM.

On to `Cc1ccc(S(N)(=O)=O)cc1-c1cc2nccc(-c3cccc(C(=O)N[C@@H]4CCCC[C@@H]4N)c3)c2o1` [Compound A50, N-((1R,2S)-2-amino-cyclohexyl)-3-[2-(2-methyl-5-sulfamoyl-phenyl)furo[3,2-b]pyridin-7-yl]-benzamide], for which the 50% inhibitory concentration (IC50) lay within 0.3 to 3 µM.

In turn, `COc1cccc(OC)c1-c1ccnc2cc(-c3cc(C(N)=O)ccc3N)oc12` [Compound A107, 4-amino-3-[7-(2,6-dimethoxy-phenyl)-furo[3,2-b]pyridin-2-yl]-benzamide] showed an IC50 of 0.1 to 0.3 µM.

`COc1ccc(C(N)=O)cc1-c1cc2nccc(-c3cc[nH]n3)c2o1` [Compound A72, 4-methoxy-3-[7-(1H-pyrazol-3-yl)-furo[3,2-b]pyridin-2-yl]-benzamide] yielded a 50% inhibitory concentration (IC50) of less than 0.1 µM.

Take `COc1cc(-c2cc3nccc(-c4ccnc(NC[C@@H]5CCCNC5)c4)c3o2)cc(OC)c1OC` [Compound A7, (R)-1-piperidin-3-ylmethyl-{4-[2-(3,4,5-trimethoxy-phenyl)-furo[3,2-b]pyridin-7-yl]-pyridin-2-yl}-amine]: the IC50 was 0.3 to 3 µM.

As for `COc1cc(-c2cc3nccc(-c4cc(C)cc(C(=O)NCCCN)c4)c3o2)cc(OC)c1OC` [Compound A57, N-(3-amino-propyl)-3-methyl-5-[2-(3,4,5-trimethoxy-phenyl)-furo[3,2-b]pyridin-7-yl]-benzamide], the IC50 lay in the range of 0.3 to 3 µM.

Molecule `CCc1ccccc1-c1cc2nccc(-c3cccc(C(=O)N[C@@H]4CCCC[C@@H]4N)c3)c2o1` [Compound A49, N-((1R,2S)-2-amino-cyclohexyl)-3-[2-(2-ethyl-phenyl)-furo[3,2-b]pyridin-7-yl]-benzamide] yielded an IC50 of 3 to 50 µM.

In turn, `COc1ccc(OCCN)cc1-c1cc2nccc(-c3cccc(C(=O)N[C@@H]4CCCC[C@@H]4N)c3)c2o1` [Compound A51, N-((1R,2S)-2-amino-cyclohexyl)-3-{2-[5-(2-amino-ethoxy)-2-methoxy-phenyl]-furo[3,2-b]pyridin-7-yl}-benzamide] yielded an IC50 of 0.3 to 3 µM.

Consider `COc1cc(O)ccc1-c1cc2nccc(-c3ccc4[nH]cnc4c3)c2o1` [Compound A14, 4-[7-(1H-benzoimidazol-5-yl)-furo[3,2-b]pyridin-2-yl]-3-methoxy-phenol], for which the concentration for half-maximal inhibition (IC50) was in the range of 0.3 to 3 µM.

As to `COc1ccc(C(=O)NCC(O)CO)cc1-c1cc2nccc(-c3c(OC)cccc3OC)c2o1` (stereo not drawn) [Compound A70, N-(2,3-dihydroxy-propyl)-3-[7-(2,6-dimethoxy-phenyl)-furo[3,2-b]pyridin-2-yl]-4-methoxy-benzamide], the IC50 fell in the range of 0.3 to 3 µM.

`COc1ccc(C(N)=O)cc1-c1cc2nccc(-c3cc(S(N)(=O)=O)ccc3OC)c2o1` [Compound A77, 4-methoxy-3-[7-(2-methoxy-5-sulfamoyl-phenyl)-furo[3,2-b]pyridin-2-yl]-benzamide] showed an IC50 of 0.3 to 3 µM.

`COc1cc(-c2cc3nccc(-c4c(OC)cncc4OC)c3o2)cc(OC)c1OC` [Compound A103, 7-(3,5-dimethoxy-pyridin-4-yl)-2-(3,4,5-trimethoxy-phenyl)-furo[3,2-b]pyridine] came in with an IC50 of less than 0.1 µM.

As for `COc1cc(-c2cc3nccc(-c4nnc(C)o4)c3o2)cc(OC)c1OC` [Compound A99, 7-(5-methyl-[1,3,4]oxadiazol-2-yl)-2-(3,4,5-trimethoxy-phenyl)-furo[3,2-b]pyridine], the half-inhibitory concentration (IC50) is 0.3 to 3 µM.
